Drawing on US7713994B2 (Wyeth LLC, priority 2005, dated 2010), this text covers IC50 for 25 compounds.

For this assay, the target named is T1, cyclin D1/cdk 4 enzyme (Homo sapiens, UniProt P11802).
T1 construct: made in house; host or cells: Sf9 insect cells, recombinant baculovirus
T1 sequence (P11802 whole entry, species assumed): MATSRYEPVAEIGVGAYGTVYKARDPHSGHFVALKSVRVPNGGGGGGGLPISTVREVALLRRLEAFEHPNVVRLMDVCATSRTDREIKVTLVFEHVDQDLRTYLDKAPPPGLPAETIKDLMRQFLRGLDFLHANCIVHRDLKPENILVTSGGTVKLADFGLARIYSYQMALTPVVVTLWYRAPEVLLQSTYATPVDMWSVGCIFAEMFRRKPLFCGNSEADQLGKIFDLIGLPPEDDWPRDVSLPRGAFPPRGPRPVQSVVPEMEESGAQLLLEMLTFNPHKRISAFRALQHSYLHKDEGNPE
T1 sequence (P24385 whole entry partner, species assumed): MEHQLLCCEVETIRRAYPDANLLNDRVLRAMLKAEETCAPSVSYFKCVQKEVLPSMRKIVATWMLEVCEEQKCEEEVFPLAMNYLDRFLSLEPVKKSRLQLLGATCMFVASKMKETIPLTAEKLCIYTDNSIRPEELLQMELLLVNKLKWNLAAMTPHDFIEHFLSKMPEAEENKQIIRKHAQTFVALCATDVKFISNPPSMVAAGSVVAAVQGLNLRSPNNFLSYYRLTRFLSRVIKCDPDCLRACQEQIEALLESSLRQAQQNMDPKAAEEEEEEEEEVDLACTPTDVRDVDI
Briefly: CDK4 ELISA kinase assay (phospho-Rb ser 795 detection). It counts as biochemical. The conditions noted are these: In Vitro Enzyme Assay, cyclin D1/cdk 4, read-out: CDK4 IC50. The procedure: • 1. High-binding ELISA microtiter plates (Costar) were coated with 40 μl of the kinase substrate (GST fusion of C-terminal fragment of the retinoblastoma susceptibility gene product) diluted to 10 μg/ml in tris-buffered saline (TBS), overnight at 4° C. • 2. Non-specific binding sites were blocked for 1 hour at 4° C. with Superblock in TBS (Pierce), and the plates rinsed with water. • 3. For the screen, 1.5 μl of test compound (200 μg/ml stock in 20% DMSO/20 mM HEPES, pH 7.5) was added to each well. Final dose of the test compound in the assay was 10 ug/ml. […] The kinase reaction (30 μl) was dispensed into each well. Reactions contained 200 μM ATP, 0.5 mg/ml bovine serum albumin (BSA; Sigma), and 0.5 μl partially purified cyclin D1/cdk 4 enzyme*. The enzyme complex is expressed in insect cells (Sf9) infected with recombinant baculovirus and partially purified using ammonium sulfate fractionation. Reaction volumes were adjusted to 30 μl with kinase assay buffer (50 mM HEPES, pH 7.5, 10 mM MgCl2, 5% glycerol, 10 mM 2-mercaptoethanol). • *: For CDK2 assay, 1.0 μl cyclin E/CDK2 enzyme (diluted 1:1000 in kinase assay buffer) was used. The enzyme is isolated from insect cells (Sf9) infected with recombinant baculovirus and partially purified using ammonium sulfate fractionation. For CDK1 assay, 0.08 μl cyclin B/CDK1 enzyme [New England BioLabs; the enzyme is isolated from insect cells (Sf9) infected with recombinant baculovirus carrying human cdc 2 and human cyclin B] was used.
[…] • 5. Plates were incubated at 30° C. for 1 hour. • 6. The reaction mixture was removed by aspiration and replaced with 250 μl TBS containing 0.1% Tween-20 and 5% nonfat dry milk (blocking buffer). The plates were incubated at 4° C. for 1 hour. • 7. The blocking buffer was removed and replaced with 50 μl of the primary antibody [anti-phospho-Rb ser 795 (New England BioLabs) diluted 1:1000 in blocking buffer]. Incubation was at 4° C. for 16-20 hours. • 8. The wells were rinsed 3 times with 250 μl of TBS containing 0.1% Tween-20 followed by the addition of 50 μl of secondary antibody [anti-rabbit IgG conjugated to horseradish peroxidase (Amersham Life Science) diluted 1:1000 in blocking buffer]. • 9. After a 1 hour incubation at room temperature, the wells were rinsed 3 times with 250 μl of TBS/0.1% Tween 20. • 10. TMB (3,3′,5,5′-tetramethylbenzidine dihydrochloride) substrate solution (100 μl; Pierce) was added to each well and the color development reaction allowed to proceed 5-10 minutes at room temperature with shaking. The reaction was stopped by the addition of 2N sulfuric acid (100 μl) and the absorbance values read at 450 nm in a microplate reader (Molecular Devices). Analysis of Results: • 1. The percentage of the absorbance value in wells containing the test compound relative to control wells (no test agent) was determined. • 2. IC50 values of selected compounds were determined from inhibition curves, after subtracting background values (no substrate).
Turning to `CCCN(CCC)Cc1ccc(NC=C2C(=O)NC(=O)c3ccccc32)cc1` [Example 614, 4-[(4-Dipropylaminomethyl-phenylamino)-methylene]-4H-isoquinoline-1,3-dione], the concentration for half-maximal inhibition (IC50) (commonly the concentration that inhibits the measured activity by half) was found to be 25.3 µM.

Consider `O=C1NC(=O)c2ccccc2C1=CNc1ccc(CN2CCCC(O)C2)cc1` (stereo not shown) [Example 615, 4-{[4-(3-Hydroxy-piperidin-1-ylmethyl)-phenylamino]-methylene}-4H-isoquinoline-1,3-dione], for which the IC50 came out at 25.7 µM.

Turning to `COCCN(C)Cc1ccc(N/C=C2\C(=O)NC(=O)c3ccccc32)cc1` [Example 616, 4-[(4-{[(2-Methoxy-ethyl)-methyl-amino]-methyl}-phenylamino)-methylene]-4H-isoquinoline-1,3-dione], the IC50 came out at 14.8 µM.

On to `O=C1NC(=O)c2ccccc2C1=CNc1ccncc1` [Example 618, 4-(Pyridin-4-ylaminomethylene)-4H-isoquinoline-1,3-dione], for which the concentration for half-maximal inhibition (IC50) was determined as 40.1 µM.

Take `O=C1NC(=O)c2ccccc2C1=CNc1cccc2c(O)cccc12` [Example 619, 4-[(5-Hydroxy-naphthalen-1-ylamino)-methylene]-4H-isoquinoline-1,3-dione]: the IC50 was 14.3 µM.

Regarding `O=C1NC(=O)c2ccc(C=CCc3ccccc3)cc2C1=CNc1ccc(CN2CCCC2)cc1` [Example 622, 6-(3-Phenyl-propenyl)-4-[(4-pyrrolidin-1-ylmethyl-phenylamino)-methylene]-4H-isoquinoline-1,3-dione], the concentration for half-maximal inhibition (IC50) worked out at 37.2 µM.

Turning to `N#CCc1ccc(NC=C2C(=O)NC(=O)c3ccc(-c4cccc5ccccc45)cc32)cc1` [Example 623, {4-[(6-Naphthalen-1-yl-1,3-dioxo-2,3-dihydro-1H-isoquinolin-4-ylidenemethyl)-amino]-phenyl)-acetonitrile], the IC50 is 25.1 µM.

Turning to `N#CCc1ccc(NC=C2C(=O)NC(=O)c3ccc(-c4ccc5ccccc5c4)cc32)cc1` [Example 624, {4-[(6-Naphthalen-2-yl-1,3-dioxo-2,3-dihydro-1H-isoquinolin-4-ylidenemethyl)-amino]-phenyl}-acetonitrile], the IC50 amounted to 13 µM.

With `N#CCc1ccc(NC=C2C(=O)NC(=O)c3ccc(-c4cccc5cccnc45)cc32)cc1` [Example 625, {4-[(1,3-Dioxo-6-quinolin-8-yl-2,3-dihydro-1H-isoquinolin-4-ylidenemethyl)-amino]-phenyl}-acetonitrile], the concentration for half-maximal inhibition (IC50) stood at 14.8 µM.

As for `N#CCc1ccc(NC=C2C(=O)NC(=O)c3ccc(-c4csc5ccccc45)cc32)cc1` [Example 628, {4-[(6-Benzo[b]thiophen-3-yl-1,3-dioxo-2,3-dihydro-1H-isoquinolin-4-ylidenemethyl)-amino]-phenyl}-acetonitrile], the concentration for half-maximal inhibition (IC50) stood at 33.6 µM.

Turning to `N#CCc1ccc(NC=C2C(=O)NC(=O)c3ccc(-c4cc[nH]c4)cc32)cc1` [Example 631, (4-{[1,3-Dioxo-6-(1H-pyrrol-3-yl)-2,3-dihydro-1H-isoquinolin-4-ylidenemethyl]-amino}-phenyl)-acetonitrile], the IC50 worked out at 4.2 µM.

For the compound `NS(=O)(=O)c1ccc(CNC=C2C(=O)NC(=O)c3ccc(-c4cccc5cccnc45)cc32)cc1` [Example 633, 4-{[(1,3-Dioxo-6-quinolin-8-yl-2,3-dihydro-1H-isoquinolin-4-ylidenemethyl)-amino]-methyl}-benzenesulfonamide], the IC50 came to 32.3 µM.

As for `O=C1NC(=O)c2ccc(-c3cccc4ccccc34)cc2C1=CNCc1ccc(O)c(O)c1` [Example 640, 4-[(3,4-Dihydroxy-benzylamino)-methylene]-6-naphthalen-1-yl-4H-isoquinoline-1,3-dione], the 50% inhibitory concentration (IC50) was found to be 21.9 µM.

Consider `N#CCc1ccc(NC=C2C(=O)NC(=O)c3ccc(C=Cc4ccccn4)cc32)cc1` [Example 648, (4-{[1,3-Dioxo-6-(2-pyridin-2-yl-vinyl)-2,3-dihydro-1H-isoquinolin-4-ylidenemethyl]-amino}-phenyl)-acetonitrile], for which the IC50 came to 18.6 µM.

For the compound `N#CCc1ccc(NC=C2C(=O)NC(=O)c3ccc(C=Cc4ccncc4)cc32)cc1` [Example 649, (4-{[1,3-Dioxo-6-(2-pyridin-4-yl-vinyl)-2,3-dihydro-1H-isoquinolin-4-ylidenemethyl]-amino}-phenyl)-acetonitrile], the IC50 was determined as 20 µM.

As for `N#CCc1ccc(NC=C2C(=O)NC(=O)c3ccc(C=Cc4ccccc4)cc32)cc1` [Example 650, {4-[(1,3-Dioxo-6-styryl-2,3-dihydro-1H-isoquinolin-4-ylidenemethyl)-amino]-phenyl}-acetonitrile], the IC50 came out at 16.6 µM.

For the compound `NS(=O)(=O)c1ccc(CNC=C2C(=O)NC(=O)c3ccc(C=CCn4ccnc4)cc32)cc1` [Example 657, 4-({[6-(3-Imidazol-1-yl-propenyl)-1,3-dioxo-2,3-dihydro-1H-isoquinolin-4-ylidenemethyl]-amino}-methyl)-benzenesulfonamide], the half-inhibitory concentration (IC50) came to 2.2 µM.

Turning to `O=C1NC(=O)c2ccc(C=CCN3CCNCC3)cc2C1=CNCc1ccc(O)c(O)c1` [Example 666, 4-[(3,4-Dihydroxy-benzylamino)-methylene]-6-(3-piperazin-1-yl-propenyl)-4H-isoquinoline-1,3-dione], the IC50 came out at 2.5 µM.

For `CN1CCN(c2ccc(NC=C3C(=O)NC(=O)c4ccc(-c5ccc6ccccc6c5)cc43)cc2)CC1` [Example 668, 4-{[4-(4-Methyl-piperazin-1-yl)-phenylamino]-methylene}-6-naphthalen-2-yl-4H-isoquinoline-1,3-dione], the half-inhibitory concentration (IC50) came to 21.9 µM.

As to `CN1CCN(c2ccc(NC=C3C(=O)NC(=O)c4ccc(-c5cc6ccccc6s5)cc43)cc2)CC1` [Example 670, 6-Benzo[b]thiophen-2-yl-4-{[4-(4-methyl-piperazin-1-yl)-phenylamino]-methylene}-4H-isoquinoline-1,3-dione], the IC50 stood at 39.8 µM.

Regarding `CN1CCN(c2ccc(NC=C3C(=O)NC(=O)c4ccc(C=Cc5ccc6ccccc6c5)cc43)cc2)CC1` [Example 674, 4-{[4-(4-Methyl-piperazin-1-yl)-phenylamino]-methylene}-6-(2-naphthalen-2-yl-vinyl)-4H-isoquinoline-1,3-dione], the half-maximal inhibitory concentration (IC50) is 11.7 µM.

Regarding `CN1CCN(c2ccc(NC=C3C(=O)NC(=O)c4ccc(C=Cc5ccccc5)cc43)cc2)CC1` [Example 677, 4-{[4-(4-Methyl-piperazin-1-yl)-phenylamino]-methylene}-6-styryl-4H-isoquinoline-1,3-dione], the IC50 is 14.3 µM.

`Cc1ncsc1C=Cc1ccc2c(c1)C(=CNc1ccc(N3CCN(C)CC3)cc1)C(=O)NC2=O` [Example 681, 4-{[4-(4-Methyl-piperazin-1-yl)-phenylamino]-methylene}-6-[2-(4-methyl-thiazol-5-yl)-vinyl]-4H-isoquinoline-1,3-dione]: the IC50 came to 17.7 µM.

As to `COc1ccccc1-c1ccc2c(c1)C(=CNc1ccc(N3CCN(C)CC3)cc1)C(=O)NC2=O` [Example 683, 6-(2-Methoxy-phenyl)-4-{[4-(4-methyl-piperazin-1-yl)-phenylamino]-methylene}-4H-isoquinoline-1,3-dione], the IC50 was 32.9 µM.

Turning to `CN1CCN(c2ccc(NC=C3C(=O)NC(=O)c4ccc(-c5ccccc5F)cc43)cc2)CC1` [Example 684, 6-(2-Fluoro-phenyl)-4-{[4-(4-methyl-piperazin-1-yl)-phenylamino]-methylene}-4H-isoquinoline-1,3-dione], the IC50 was found to be 12.4 µM.
